{"source": "patent US8334261B2", "about": "“Osteopenia animal model” (Oriental Yeast Co., Ltd., priority 2006, dated 2012)", "format_in_all_cases": "in vivo, mouse", "key": {"[1]": {"system": "GST-RANKL-administered 7-week-old female C57BL/6N mice", "assay": "Evaluation of a bone mass increase with low-dose PTH in GST-RANKL mice", "method": "GST-RANKL was intraperitoneally administered 2 times to groups of 7-week-old female C57BL/6N mice at 1 mg/kg every 24 hours. PTH was subcutaneously administered thereto at 40 or 80 μg/kg from 24 hours after the 2nd administration every 24 hours for 10 consecutive days. In addition, PBS was administered to a group serving as the control group for the GST-RANKL and PTH administration groups for comparison. The serum and femur were collected from each mouse 24 hours after the end of administration for 10 days.\nThe serum collected from each mouse was subjected to measurement of serum bone resorption markers (Ca and TRAP-5b) and an osteogenesis marker (ALP). Each femur was subjected to measurement of the total bone density, the cortical bone density, the cortical bone thickness, the cortical bone mineral content, and the cortical bone density in the diaphysis with pQCT at points 0.6, 0.8, and 1.0 mm […] the distal growth plate on the proximal side. In addition, image analysis was carried out with micro CT."}, "[2]": {"system": "7-week-old female C57BL/6N mice", "assay": "Evaluation of a bone mass increase with PTH (GST-RANKL, ovariectomy)", "method": "GST-RANKL was administered twice to groups of 7-week-old female C57BL/6N mice at 1 mg/kg every 24 hours. Ovariectomy was performed 24 hours after the 2nd administration. In addition, parathyroid hormone (PTH) was subcutaneously administered thereto at 160 μg/kg from 24 hours after the ovariectomy for 10 consecutive days. Further, a group obtained by PBS administration and sham operation (Sham) was designated as a control group for comparison. The serum markers and the femur bone density were measured."}, "[3]": {"system": "GST-RANKL-administered 7-week-old female C57BL/6N mice", "assay": "Evaluation of a bone mass increase with low-dose PTH in GST-RANKL mice", "conditions": "PTH 80 μg/kg; 1.0 mm"}}}
{"substance": "parathyroid hormone [PTH]", "values": [{"measurement": "cortical bone density in the diaphysis, increase in GST-RANKL group", "setting": "[1]; PTH 40 μg/kg", "result": 3, "unit": "%"}, {"measurement": "serum ALP concentration in GST-RANKL group", "setting": "[1]; PTH 40 μg/kg", "result": "tended to decrease"}, {"measurement": "cancellous bone density increase in GST-RANKL group vs PBS", "setting": "[1]; PTH 40 μg/kg, 0.6 mm", "result": 25, "unit": "%"}, {"measurement": "cortical bone mineral content increase in GST-RANKL group vs PBS", "setting": "[1]; PTH 40 μg/kg, 0.6 mm", "result": 80, "unit": "%"}, {"measurement": "cortical bone thickness increase in GST-RANKL group vs PBS", "setting": "[1]; PTH 40 μg/kg, 0.6 mm", "result": 86, "unit": "%"}, {"measurement": "total bone density increase in GST-RANKL group vs PBS", "setting": "[1]; PTH 40 μg/kg, 0.6 mm", "result": 14, "unit": "%"}, {"measurement": "cancellous bone density increase in GST-RANKL group vs PBS", "setting": "[1]; PTH 40 μg/kg, 0.8 mm", "result": 28, "unit": "%"}, {"measurement": "cortical bone density increase in GST-RANKL group vs PBS", "setting": "[1]; PTH 40 μg/kg, 0.8 mm", "result": 4, "unit": "%"}, {"measurement": "cortical bone mineral content increase in GST-RANKL group vs PBS", "setting": "[1]; PTH 40 μg/kg, 0.8 mm", "result": 123, "unit": "%"}, {"measurement": "cortical bone thickness increase in GST-RANKL group vs PBS", "setting": "[1]; PTH 40 μg/kg, 0.8 mm", "result": 127, "unit": "%"}, {"measurement": "total bone density increase in GST-RANKL group vs PBS", "setting": "[1]; PTH 40 μg/kg, 0.8 mm", "result": 17, "unit": "%"}, {"measurement": "cortical bone density increase in GST-RANKL group vs PBS", "setting": "[1]; PTH 40 μg/kg, 1.0 mm", "result": 5, "unit": "%"}, {"measurement": "cortical bone mineral content increase in GST-RANKL group vs PBS", "setting": "[1]; PTH 40 μg/kg, 1.0 mm", "result": 100, "unit": "%"}, {"measurement": "cortical bone thickness increase in GST-RANKL group vs PBS", "setting": "[1]; PTH 40 μg/kg, 1.0 mm", "result": 98, "unit": "%"}, {"measurement": "total bone density increase in GST-RANKL group vs PBS", "setting": "[1]; PTH 40 μg/kg, 1.0 mm", "result": 19, "unit": "%"}, {"measurement": "cortical bone density in the diaphysis, increase in GST-RANKL group", "setting": "[1]; PTH 80 μg/kg", "result": 3, "unit": "%"}, {"measurement": "cancellous bone density increase in GST-RANKL group", "setting": "[1]; PTH 80 μg/kg, 0.6 mm", "result": 20, "unit": "%"}, {"measurement": "cortical bone mineral content increase in GST-RANKL group", "setting": "[1]; PTH 80 μg/kg, 0.6 mm", "result": 46, "unit": "%"}, {"measurement": "cortical bone thickness increase in GST-RANKL group", "setting": "[1]; PTH 80 μg/kg, 0.6 mm", "result": 50, "unit": "%"}, {"measurement": "total bone density increase in GST-RANKL group", "setting": "[1]; PTH 80 μg/kg, 0.6 mm", "result": 10, "unit": "%"}, {"measurement": "cortical bone mineral content increase in GST-RANKL group", "setting": "[1]; PTH 80 μg/kg, 0.8 mm", "result": 83, "unit": "%"}, {"measurement": "cortical bone thickness increase in GST-RANKL group", "setting": "[1]; PTH 80 μg/kg, 0.8 mm", "result": 89, "unit": "%"}, {"measurement": "total bone density increase in GST-RANKL group", "setting": "[1]; PTH 80 μg/kg, 0.8 mm", "result": 13, "unit": "%"}, {"measurement": "cortical bone mineral content increase in GST-RANKL group", "setting": "[1]; PTH 80 μg/kg, 1.0 mm", "result": 77, "unit": "%"}, {"measurement": "cortical bone thickness increase in GST-RANKL group", "setting": "[1]; PTH 80 μg/kg, 1.0 mm", "result": 79, "unit": "%"}, {"measurement": "total bone density increase in GST-RANKL group", "setting": "[1]; PTH 80 μg/kg, 1.0 mm", "result": 13, "unit": "%"}, {"measurement": "serum ALP concentration in GST-RANKL group", "setting": "[1]; PTH 80 μg/kg, p<0.01", "result": "significantly decreased"}, {"measurement": "serum Ca concentration in GST-RANKL group", "setting": "[1]; PTH 80 μg/kg, p<0.05", "result": "slightly significant decrease"}, {"measurement": "serum TRAP-5b concentration", "setting": "[1]; PTH 40 or 80 μg/kg s.c. 10 days", "result": "no significant changes"}, {"measurement": "bone density decrease", "setting": "[2]; PTH 160 μg/kg administered to the GST-RANKL+Sham group, p<0.05", "result": "significantly suppressed"}, {"measurement": "femur bone density", "setting": "[2]; PTH 160 μg/kg administered to the PBS+Sham group", "result": "significantly increased exclusively at the 1.0-mm point"}, {"measurement": "femur bone density increase", "setting": "[2]; PTH 160 μg/kg in the OVX group", "result": "no significant difference"}, {"measurement": "serum TRAP-5b concentration, fold as high as the relevant group not treated with PTH", "setting": "[2]; every PTH administration group, 160 μg/kg s.c. 10 consecutive days", "result": "approximately 1.5 fold"}, {"measurement": "cortical bone density increase in GST-RANKL administration group", "setting": "[3]", "result": 3, "unit": "%"}]}
